# Values joined by “and” are separate entries in the source; they are usually repeats but may differ in a detail not shown here. Equal values may be shown once.
# What was measured:
# [1] = system: S. aureus Mu3 (MRSA); assay: microbe, parasite or virus in culture
# Description: (§1) (10−4 M final concentrations). At selected time intervals, 100 μl of reaction mixture was collected, quenched by 200 μl 95% EtOH, and adjusted at pH 2 to prevent peptide adsorption to serum proteins. […] Supernatants were analyzed by RP-HPLC on an Xbridge C18 column with a linear gradient of water, 0.08% TFA, and acetonitrile with 1% TFA. HPLC peak areas were used to calculate the percentages of intact compound remaining at the various time points. MIC and MBC values were determined in triplicate in many ESKAPE clinical isolates, including a dozen MDR S. aureus, by the broth microdilution method. Peptidomimetics and antibiotics were assayed in a concentration range of 1 to 128 μM. The bacterial inoculum (5 × 10^5 colony-forming units [CFUs]/well) was prepared in MHB or CAMHB (150 μl). A Biotek Synergy 2 spectrophotometer was used to record the results after 18–20 h incubation at 35°C (±2°C). […] After every hour of culture for 4 h, serial dilutions were plated on BHI plates and incubated overnight at 37°C, and then the CFUs were counted and expressed as log CFU/ml. Phosphate-buffered saline (PBS)-exposed S. aureus MRSA was included as a control.
# [2] = system: S. aureus Newman; assay: microbe, parasite or virus in culture
# Description: as §1
# [3] = system: E. faecium Aus0004; details: Aus0004
# Description: as §1
# [4] = Stability in human serum (half-life); type: in vitro ADME; details: 25% human serum, pre-incubated 15 min at 37°C, peptide 10^−4 M, RP-HPLC peak areas, mean of biological triplicates
# Description: as §1
# (§2) Supplementary file pbio.3000337.s013.docx: S7 Table Peptide half-lives in human and mouse sera. […] Peptide amounts and half-lives were determined by HPLC. Experiments were conducted on 25% human or mouse sera. Values are shown in minutes. The mean values correspond to biological triplicates. HPLC, high pressure liquid chromatography. (DOCX) Click here for additional data file.
# [5] = Stability in mouse serum (half-life); type: in vitro ADME; details: 25% mouse serum, pre-incubated 15 min at 37°C, peptide 10^−4 M, RP-HPLC peak areas, mean of biological triplicates
# Description: as §1, §2
# [6] = system: Escherichia coli 13090
# Description: as §1
# [7] = system: Escherichia coli K12; details: E. coli K12
# Description: as §1
# [8] = system: Escherichia coli ML35P; details: E. coli ML35P
# Description: as §1
# [9] = system: P. aeruginosa 15643
# Description: as §1
# [10] = system: P. aeruginosa PA14; details: P. aeruginosa PA14
# Description: as §1
# [11] = system: P. aeruginosa LESB58; details: P. aeruginosa strain LESB58; biological triplicates
# Description: as §1, with “μM.” for “μM. The bacterial inoculum (5 × 10^5 colony-forming units [CFUs]/well) was prepared in MHB or CAMHB (150 μl). A Biotek Synergy 2 spectrophotometer was used to record the results after 18–20 h incubation at 35°C (±2°C).”, “Phosphate-buffered saline (PBS)-exposed S. aureus MRSA was included as a control.” left out
# For 15 d in MHB, MICs were determined daily for each pseudopeptide and their antibiotic controls. […] The suspension was diluted in MHB or CAMHB (10^6 cells/ml) and then used to determine the MIC of the same compound determined by micro broth dilution. […] To control compound stability, peptide solution MICs were determined during and at the end of the 15 d and were compared to cells unexposed to antibiotics. In vivo resistance was also assessed in treated mice (1.5 mg.kg^−1) for 4 d (sepsis) or 6 d (skin abscesses). […]
# [12] = system: P. aeruginosa LESB58; assay: Cutaneous abscess mouse model (CFU); type: in vivo, mice; details: mice, P. aeruginosa LESB58; 9 mg.kg^−1 subcutaneous multiple doses; day 3
# Description: (§3) For the cutaneous abscess model, the mice were randomly divided into 5 sets. The mice were anesthetized with isoflurane, their dorsal fur shaved, and their skin disinfected with 70% ethanol. An overnight culture of S. aureus MRSA or P. aeruginosa LESB58 was washed with 0.9% NaCl, and then a subcutaneous injection of 2 × 10^9 CFUs and an equal amount of sterile Cytodex microcarrier beads (20 mg.ml^−1, Sigma) for S. aureus MRSA, or 10^8 CFUs for P. aeruginosa were injected into the shaved area. […] Mice were monitored every day and then euthanized with CO2 on Day 6 or on Day 3. Abscesses were excised, measured, and homogenized in PBS using an Ultra-Turax. Serial dilutions of the samples were plated on BHI (MRSA) or 2YT medium (LESB58) plates and then incubated overnight at 37°C. Afterward, the CFUs were counted and expressed as log CFU/ml. Dermonecrosis areas were calculated according to the formula π × L × W. ATP levels were determined with an ATP assay kit (Promega) according to manufacturer instructions on sets of 5 colonies harboring the SCV phenotype, and sets of 5 colonies harboring a normal phenotype, after growth on BHI plates.
# [13] = system: S. aureus 33845; assay: microbe, parasite or virus in culture; details: Staphylococcus aureus
# Description: as §1
# (§4) Supplementary file pbio.3000337.s007.docx: S1 Table Antibacterial activity of the 4 peptidomimetics focusing on 9 S. aureus MDR clinical isolates. Clinical isolates BCB/POE and 740404 DUN are from human sepsis. The other strains are from catheter infections or suppurating wounds. Brilacidin was used as a control. MDR, multidrug resistant. (DOCX) Click here for additional data file.
# [14] = system: S. aureus 66534 E; assay: microbe, parasite or virus in culture; details: Staphylococcus aureus
# Description: as §1, §4
# [15] = system: S. aureus 702697 HOU; assay: microbe, parasite or virus in culture; details: Staphylococcus aureus
# Description: as §1, §4
# [16] = system: S. aureus 740404 DUN; assay: microbe, parasite or virus in culture; details: Staphylococcus aureus
# Description: as §1, §4
# [17] = system: S. aureus BCB/POE; assay: microbe, parasite or virus in culture; details: Staphylococcus aureus
# Description: as §1, §4
# [18] = system: S. aureus COB; assay: microbe, parasite or virus in culture; details: Staphylococcus aureus
# Description: as §1, §4
# [19] = system: S. aureus FORT; assay: microbe, parasite or virus in culture; details: Staphylococcus aureus
# Description: as §1, §4
# [20] = system: S. aureus PM64; assay: microbe, parasite or virus in culture; details: Staphylococcus aureus, PM64
# Description: as §1, §4
# [21] = system: S. aureus ROUS; assay: microbe, parasite or virus in culture; details: Staphylococcus aureus
# Description: as §1, §4
# [22] = system: MRSA; assay: Severe sepsis mouse model, survival; type: in vivo; details: mice, approximately 2 × 10^9 CFUs MRSA IV; 4 IV doses of 0.5 mg.kg^−1 at 2, 24, 48, 72 h
# From the text: Tolerance and toxicity studies were done on male Swiss mice (CD-1 Crl: CD-1 [ICR] IGS; Charles River). These were 7 to 10 weeks old and weighed an average of 37.2 g. All experimental protocols were approved by the Adaptive Therapeutics Animal Care and Use Committee (APAFiS #4508-2016031l15541258 v2). For the sepsis model, we used female Swiss mice (Janvier Labs), 6 to 8 weeks old and weighing approximately 30 g. Experiments were monitored in the ARCHE-BIOSIT animal lab in Rennes, in biological duplicate. We used Groups of 5 mice for the mild and the severe sepsis models with MRSA. Mice were IV inoculated with 150 μl of MRSA suspensions in 0.9% NaCl containing approximately 5 × 10^8 CFUs for the “mild” sepsis and approximately 2 × 10^9 CFUs for the “severe” sepsis, respectively. […] Mice survival was monitored for 4 d (“severe” sepsis) or 14 d (“mild” sepsis), and the statistical significance of difference(s) between the groups was evaluated using the Wilcoxon test. P < 0.05 was considered significant. Two weeks (“mild” sepsis) or 4 d (“severe” sepsis) after inoculation, mice were euthanized with CO2.
# [23] = system: S. aureus N315 (MRSA); assay: microbe, parasite or virus in culture; details: Staphylococcus aureus, MRSA
# Description: as §1
# [24] = system: MRSA (Mu3); assay: microbe, parasite or virus in culture
# Description: (§5) For 15 d in MHB, MICs were determined daily for each pseudopeptide and their antibiotic controls. This was done using cells from the well in which the compound concentration was one-half of the MIC (1/2MIC). For each compound, the 1/2MIC well from the previous day’s MIC assay plate was re-suspended and the bacteria grown to a density of about 10^8 cells ml−1. The suspension was diluted in MHB or CAMHB (10^6 cells/ml) and then used to determine the MIC of the same compound determined by micro broth dilution. All MIC measurements were performed in duplicate. Aliquots of the 5 × 10^4 cell/ml dilutions for each 1/2MIC well were periodically plated on MHB and incubated at 35°C for 18 h to verify cell density by colony counts and for visual inspection of colony phenotypes. To control compound stability, peptide solution MICs were determined during and at the end of the 15 d and were compared to cells unexposed to antibiotics. In vivo resistance was also assessed in treated mice (1.5 mg.kg^−1) for 4 d (sepsis) or 6 d (skin abscesses). […] The broth microdilution method was performed as per EUCAST recommendations on 5 independent colonies per mouse (3 mice per set, 15 colonies per drug tested). For severe sepsis and subcutaneous abscesses, in vivo resistance was determined by plating aliquots of crude kidney extracts or abscesses on plates containing 1-, 2-, 4-, or 8-fold the peptide MICs 7 or 3 d post infections, respectively.
# [25] = system: MSSA (Newman); assay: microbe, parasite or virus in culture; details: Staphylococcus aureus
# Description: as §5
# [26] = system: MRSA (Mu3); assay: microbe, parasite or virus in culture; details: Staphylococcus aureus, MRSA
# Description: as §5
# [27] = system: S. aureus MRSA; assay: Cutaneous abscess mouse model (lesion size, CFU); type: in vivo, mice; details: cutaneous abscesses from MRSA in mice; IV 24 h post-infection, 1.5 mg.kg-1; individual values
# Description: as §3
# [28] = system: S. aureus; assay: Intracellular ATP levels of SCV versus normal colonies from skin abscesses; type: cell-based; details: individual values
# Description: as §3
# [29] = broth microdilution, 3 independent experiments
molecule,measurement,setting,value
"CCCCCCCCCC(=O)N[C@@H](Cc1c[nH]c2ccccc12)C(=O)N[C@H](CC(N)=O)C(=O)N[C@@H](CC(=O)O)C(=O)N[C@@H]1C(=O)NCC(=O)N[C@@H](CCCN)C(=O)N[C@@H](CC(=O)O)C(=O)N[C@H](C)C(=O)N[C@@H](CC(=O)O)C(=O)NCC(=O)N[C@H](CO)C(=O)N[C@@H]([C@H](C)CC(=O)O)C(=O)N[C@@H](CC(=O)c2ccccc2N)C(=O)O[C@@H]1C [Daptomycin, daptomycin, reference compound]",MIC,[1]; Mu3,0.5 (1) μM
same,MIC,[2]; Newman,0.25 (0.5) μM
same,MIC,[3],0.5 (1) μM
same,half-life,[4],52.3 ± 6.67 h
same,half-life,[5],> 58.3 h
colistin,MBC/MIC,[6]; E. coli 13090,1
same,MIC,"[6]; E. coli 13090, clinical strain, Caen hemoculture, broth microdilution, 3 independent experiments",1 (1.3) μM
same,MBC/MIC,[7],1
same,MIC,[7]; [29],0.5 (0.65) μM
same,MBC/MIC,[8],1
same,MIC,[8]; [29],0.5 (0.65) μM
same,MBC/MIC,[9]; P. aeruginosa 15643,2
same,MIC,"[9]; P. aeruginosa 15643, clinical strain, Caen hemoculture, broth microdilution, 3 independent experiments",0.5 (0.65) μM
same,MBC/MIC,[10],2
same,MIC,[10]; [29],0.5 (0.65) μM
same,MIC,[11],1 µM
same,Number of bacteria in abscess,[12],lowered the number of bacteria
"N=C(N)NCCCCC(=O)Nc1cc(C(F)(F)F)cc(NC(=O)c2cc(C(=O)Nc3cc(C(F)(F)F)cc(NC(=O)CCCCNC(=N)N)c3O[C@@H]3CCNC3)ncn2)c1O[C@@H]1CCNC1 [brilacidin, reference compound]",MIC,[13],1 µg/mL
same,MIC,[14],1 µg/mL
same,MIC,[15],1 µg/mL
same,MIC,[16],1 µg/mL
same,MIC,[17],1 µg/mL
same,MIC,[18],1 µg/mL
same,MIC,[19],1 µg/mL
same,MIC,[20],1 µg/mL
same,MIC,[21],1 µg/mL
same,Survival in severe sepsis,[22],cured the infected animals
"CN[C@H](CC(C)C)C(=O)N[C@H]1C(=O)N[C@@H](CC(N)=O)C(=O)N[C@H]2C(=O)N[C@H]3C(=O)N[C@H](C(=O)N[C@H](C(=O)O)c4cc(O)cc(O)c4-c4cc3ccc4O)[C@H](O)c3ccc(c(Cl)c3)Oc3cc2cc(c3O[C@@H]2O[C@H](CO)[C@@H](O)[C@H](O)[C@H]2O[C@H]2C[C@](C)(N)[C@H](O)[C@H](C)O2)Oc2ccc(cc2Cl)[C@H]1O [Vancomycin, vancomycin]",MIC,"[1]; Staphylococcus aureus, MRSA",1 µM
same,MIC,[23],2 µM
same,MIC,"[2]; Staphylococcus aureus, NEWMAN",0.5 µM
same,MIC,"[24]; MRSA (Mu3), d14 of serial passages at sub-MIC",1 (1.4) μM
same,MIC,"[24]; Staphylococcus aureus, MRSA",1 µM
same,MIC,"[25]; MSSA (Newman), d0 of serial passages",0.5 µM
same,MIC,"[25]; MSSA|NEWMAN, d14 of serial passages at sub-MIC",1 µM
same,MIC,[26],1 µM
same,MIC,[26]; 24 h,1 µM
same,Survival in severe sepsis,[22],much less effective
CN[C@H](CC(C)C)C(=O)N[C@H]1C(=O)N[C@@H](CC(N)=O)C(=O)N[C@H]2C(=O)N[C@H]3C(=O)N[C@H](C(=O)N[C@H](C(=O)O)c4cc(O)cc(O)c4-c4cc3ccc4O)[C@H](O)c3ccc(c(Cl)c3)Oc3cc2cc(c3O[C@@H]2O[C@H](CO)[C@@H](O)[C@H](O)[C@H]2O[C@H]2C[C@](C)(N)[C@H](O)[C@H](C)O2)Oc2ccc(cc2Cl)[C@H]1O [Vanco],Area of dermonecrosis,[27],88.6 mm2 and 44.4 mm2 and 88.5 mm2 and 82.8 mm2 and 67.1 mm2 and 13 mm2 and 197.8 mm2 and 164.7 mm2 and 166.7 mm2 and 90 mm2
same,"Intracellular ATP level, 'normal growing'",[28]; 'normal growing' colonies from MRSA abscesses of mice treated IV with 1.5 mg.kg-1,122379 AU and 119801 AU and 111813 AU and 113023 AU and 103234 AU
same,"Intracellular ATP level, SCV",[28]; SCV from MRSA abscesses of mice treated IV with 1.5 mg.kg-1,20326.9 AU and 5706.67 AU and 6923.08 AU and 10333.3 AU and 15090.9 AU

# — article PMC6615598, “Novel antibiotics effective against gram-positive and -negative multi-resistant bacteria with limited resistance” (PLoS Biology, 2019)
